Assay results published in US20200291350A1, “HEPATOCYTE CONSTRUCT AND METHOD FOR PRODUCING THE SAME” (NIHON KOHDEN CORPORATION, priority 2019, published 2020).

Columns and labels:
Type in all cases: cell-based
[1] = system: mouse hepatocyte/NHDF cell sheet; assay: Effect of added agent on ballooning of mouse hepatocytes in PMH/NHDF hepatocyte construct (H&E staining); settings: metformin 500 μM added on day 1; mouse hepatocyte/NHDF cell sheet day 8
Method: (§1) At pre-determined time points, cell sheet samples were washed by pre-warmed PBS twice and fixed in 4% paraformaldehyde at room temperature for 1 h. Fixed cell sheets were embedded in paraffin, sliced into 4 μm sections and deparaffinized for standard histological staining with hematoxylin and eosin (HE). For immunostainings of cytokeratin 8+18 (CK8/18), sections were treated with Dako proteinase K (Agilent, Santa Clara, Calif., US) for antigen retrieval, incubated in Dako REAL peroxidase-blocking solution (Agilent) to quench endogenous peroxidase activity, and then blocked in Blocking One Histo (Nacalai Tesque, Kyoto, Japan). After that, the sections were incubated with mouse anti-human CK8/18 at 25-fold dilution (Abeam, Cambridge, UK) followed by incubation with horseradish […] donkey anti-mouse IgG H&L (Abeam). The sections were dyed with Dako Liquid DAB+Substrate Chromogen System (Agilent) and the nuclei were stained with hematoxylin. Finally, the sections were mounted, dried and imaged with a light microscope (Nikon).
Primary mouse hepatocytes (PMH) were obtained in the same manner as in Example 3.
As NHDFs, NHDFs used in Example 1 were used.
Primary mouse hepatocytes (PMH)/NHDF co-culture and production of a hepatocyte construct were performed in the same manner as in Example 1 except that PMHs were used in place of the above-mentioned PHHs. […]

PHH/NHDF cell sheet = assay: Effect of added agent on ballooning of human hepatocytes in PHH/NHDF hepatocyte construct (H&E staining); settings: metformin 500 μM added on day 1; PHH/NHDF cell sheet on day 11 or day 4
Method: as §1
As PHHs and NHDFs, PHHs and NHDFs used in Example 1 were used.
Primary human hepatocytes (PHH)/NHDF co-culture and production of a hepatocyte construct were performed in the same manner as in Example 1 described above. […]

[2] = system: mouse hepatocyte/NHDF cell sheet; assay: Hepatocellular ballooning in mouse hepatocyte/NHDF cell sheet made with mitomycin C-treated NHDFs (H&E staining); settings: NHDFs treated with mitomycin C 6 μg/mL for 2.5 hours before co-culture with PMHs; cell sheet day 8; vs untreated NHDFs
Method: as §1
Primary mouse hepatocytes (PMH) were isolated from the liver of a mouse by a modified two-step collagenase perfusion method and purified by a 45% percoll density gradient centrifugation method. The viability of PMHs was 90%.
As NHDFs, NHDFs used in Example 1 were used. […]

SMILES	hepatocellular ballooning [1]	hepatocellular ballooning (PHH/NHDF cell sheet)	hepatocellular ballooning [2]
CN(C)C(=N)N=C(N)N [metformin]	suppressed	suppressed	–
CO[C@@]12[C@H](COC(N)=O)C3=C(C(=O)C(C)=C(N)C3=O)N1C[C@@H]1N[C@@H]12 [mitomycin C]	–	–	suppressed
